Laboratory results: ChEMBL document CHEMBL6182847, “Design, synthesis, and biological evaluation of novel aminopyrimidine derivatives as EGFR inhibitors” (Bioorg Med Chem Lett, 2025)

Experiments:
[1] = test system: Epidermal growth factor receptor (Homo sapiens), P00533 [L858R,T790M,C797S]; settings: dose 500.0 nM
Description: Inhibition of EGFR L858R/T790M/C797S mutant (unknown origin) at 500 nM relative to control

[2] = cells; settings: Mus musculus, Ba/F3 EGFR-T790M/C797S/L858R
Description: Antiproliferative activity against mouse Ba/F3 EGFR-T790M/C797S/L858R cells

[3] = target: Epidermal growth factor receptor (Homo sapiens, UniProt P00533, C797S/L858R/T790M); experiment: Inhibition of EGFR L858R/T790M/C797S mutant (unknown origin)
Sequence of Epidermal growth factor receptor (Homo sapiens, UniProt P00533, C797S/L858R/T790M) (P00533 25-1210 T790M/C797S/L858R limits assumed): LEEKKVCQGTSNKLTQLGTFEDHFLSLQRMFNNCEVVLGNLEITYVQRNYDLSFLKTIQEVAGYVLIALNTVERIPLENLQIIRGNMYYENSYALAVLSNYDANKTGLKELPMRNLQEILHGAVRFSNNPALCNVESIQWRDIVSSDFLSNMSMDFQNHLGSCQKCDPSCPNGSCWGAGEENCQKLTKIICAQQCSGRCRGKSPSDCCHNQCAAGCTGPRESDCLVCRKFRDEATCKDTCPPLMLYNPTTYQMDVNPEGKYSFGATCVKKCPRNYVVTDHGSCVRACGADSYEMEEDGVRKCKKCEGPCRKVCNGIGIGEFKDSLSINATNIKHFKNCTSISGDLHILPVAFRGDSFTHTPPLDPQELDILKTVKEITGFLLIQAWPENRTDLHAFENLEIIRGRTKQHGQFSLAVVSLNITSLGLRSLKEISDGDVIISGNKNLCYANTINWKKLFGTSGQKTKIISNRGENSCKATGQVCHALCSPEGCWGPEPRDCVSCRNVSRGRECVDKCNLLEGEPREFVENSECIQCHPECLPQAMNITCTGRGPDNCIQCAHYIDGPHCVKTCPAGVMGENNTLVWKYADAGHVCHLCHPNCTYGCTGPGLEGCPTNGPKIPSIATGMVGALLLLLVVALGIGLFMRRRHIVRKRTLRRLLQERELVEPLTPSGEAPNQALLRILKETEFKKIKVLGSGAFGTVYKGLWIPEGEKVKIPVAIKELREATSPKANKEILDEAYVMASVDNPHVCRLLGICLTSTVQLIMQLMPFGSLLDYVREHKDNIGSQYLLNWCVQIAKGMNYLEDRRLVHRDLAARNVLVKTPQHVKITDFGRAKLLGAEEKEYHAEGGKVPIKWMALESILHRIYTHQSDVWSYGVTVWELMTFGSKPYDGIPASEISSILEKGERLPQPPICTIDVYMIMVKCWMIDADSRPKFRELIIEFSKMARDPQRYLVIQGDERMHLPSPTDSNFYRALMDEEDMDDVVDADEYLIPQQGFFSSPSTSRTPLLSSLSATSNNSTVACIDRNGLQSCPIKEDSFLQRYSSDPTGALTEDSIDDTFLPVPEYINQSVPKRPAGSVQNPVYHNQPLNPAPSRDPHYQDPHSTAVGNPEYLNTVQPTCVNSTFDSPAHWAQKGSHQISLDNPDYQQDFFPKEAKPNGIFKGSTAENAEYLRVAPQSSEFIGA

[4] = target: Epidermal growth factor receptor (Homo sapiens, UniProt P00533); experiment: Inhibition of wild-type EGFR (unknown origin)
Sequence of Epidermal growth factor receptor (Homo sapiens, UniProt P00533) (P00533 whole entry): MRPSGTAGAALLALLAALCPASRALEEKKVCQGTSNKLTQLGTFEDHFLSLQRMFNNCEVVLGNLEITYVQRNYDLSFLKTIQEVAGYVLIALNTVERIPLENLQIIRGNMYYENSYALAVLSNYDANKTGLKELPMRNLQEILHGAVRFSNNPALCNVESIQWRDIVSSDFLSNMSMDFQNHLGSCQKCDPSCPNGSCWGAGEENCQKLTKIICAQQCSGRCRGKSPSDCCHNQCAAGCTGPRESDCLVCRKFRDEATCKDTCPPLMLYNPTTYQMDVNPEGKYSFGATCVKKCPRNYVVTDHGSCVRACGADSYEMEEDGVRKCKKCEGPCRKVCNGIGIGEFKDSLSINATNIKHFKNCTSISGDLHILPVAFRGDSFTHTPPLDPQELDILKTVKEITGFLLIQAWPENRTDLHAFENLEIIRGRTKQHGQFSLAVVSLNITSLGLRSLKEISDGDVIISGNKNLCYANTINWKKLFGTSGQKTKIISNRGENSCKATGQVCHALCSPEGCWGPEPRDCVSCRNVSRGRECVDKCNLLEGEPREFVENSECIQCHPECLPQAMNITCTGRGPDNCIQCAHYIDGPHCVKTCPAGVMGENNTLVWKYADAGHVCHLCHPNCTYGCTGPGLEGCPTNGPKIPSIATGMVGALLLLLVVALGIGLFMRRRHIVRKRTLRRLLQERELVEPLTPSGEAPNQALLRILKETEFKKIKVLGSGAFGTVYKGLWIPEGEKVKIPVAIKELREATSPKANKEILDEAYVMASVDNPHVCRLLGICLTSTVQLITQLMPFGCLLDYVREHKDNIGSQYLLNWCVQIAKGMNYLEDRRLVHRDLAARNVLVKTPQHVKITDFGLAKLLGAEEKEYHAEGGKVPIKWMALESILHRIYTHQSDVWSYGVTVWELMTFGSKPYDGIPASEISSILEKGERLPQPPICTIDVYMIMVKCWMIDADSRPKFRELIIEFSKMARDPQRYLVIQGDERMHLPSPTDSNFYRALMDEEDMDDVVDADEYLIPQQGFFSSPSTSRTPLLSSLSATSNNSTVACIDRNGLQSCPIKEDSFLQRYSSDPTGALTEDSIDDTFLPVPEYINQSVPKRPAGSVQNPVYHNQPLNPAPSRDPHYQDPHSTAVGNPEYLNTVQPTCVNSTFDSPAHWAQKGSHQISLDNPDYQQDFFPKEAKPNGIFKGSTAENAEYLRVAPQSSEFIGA

[5] = Potency index, ratio of Brigatinib IC50 to test compound IC50 for antiproliferative activity against mouse Ba/F3 EGFR-T790M/C797S/L858R cells; type: functional

Sequence of Epidermal growth factor receptor (Homo sapiens), P00533 [L858R,T790M,C797S] (P00533 whole entry T790M/C797S/L858R): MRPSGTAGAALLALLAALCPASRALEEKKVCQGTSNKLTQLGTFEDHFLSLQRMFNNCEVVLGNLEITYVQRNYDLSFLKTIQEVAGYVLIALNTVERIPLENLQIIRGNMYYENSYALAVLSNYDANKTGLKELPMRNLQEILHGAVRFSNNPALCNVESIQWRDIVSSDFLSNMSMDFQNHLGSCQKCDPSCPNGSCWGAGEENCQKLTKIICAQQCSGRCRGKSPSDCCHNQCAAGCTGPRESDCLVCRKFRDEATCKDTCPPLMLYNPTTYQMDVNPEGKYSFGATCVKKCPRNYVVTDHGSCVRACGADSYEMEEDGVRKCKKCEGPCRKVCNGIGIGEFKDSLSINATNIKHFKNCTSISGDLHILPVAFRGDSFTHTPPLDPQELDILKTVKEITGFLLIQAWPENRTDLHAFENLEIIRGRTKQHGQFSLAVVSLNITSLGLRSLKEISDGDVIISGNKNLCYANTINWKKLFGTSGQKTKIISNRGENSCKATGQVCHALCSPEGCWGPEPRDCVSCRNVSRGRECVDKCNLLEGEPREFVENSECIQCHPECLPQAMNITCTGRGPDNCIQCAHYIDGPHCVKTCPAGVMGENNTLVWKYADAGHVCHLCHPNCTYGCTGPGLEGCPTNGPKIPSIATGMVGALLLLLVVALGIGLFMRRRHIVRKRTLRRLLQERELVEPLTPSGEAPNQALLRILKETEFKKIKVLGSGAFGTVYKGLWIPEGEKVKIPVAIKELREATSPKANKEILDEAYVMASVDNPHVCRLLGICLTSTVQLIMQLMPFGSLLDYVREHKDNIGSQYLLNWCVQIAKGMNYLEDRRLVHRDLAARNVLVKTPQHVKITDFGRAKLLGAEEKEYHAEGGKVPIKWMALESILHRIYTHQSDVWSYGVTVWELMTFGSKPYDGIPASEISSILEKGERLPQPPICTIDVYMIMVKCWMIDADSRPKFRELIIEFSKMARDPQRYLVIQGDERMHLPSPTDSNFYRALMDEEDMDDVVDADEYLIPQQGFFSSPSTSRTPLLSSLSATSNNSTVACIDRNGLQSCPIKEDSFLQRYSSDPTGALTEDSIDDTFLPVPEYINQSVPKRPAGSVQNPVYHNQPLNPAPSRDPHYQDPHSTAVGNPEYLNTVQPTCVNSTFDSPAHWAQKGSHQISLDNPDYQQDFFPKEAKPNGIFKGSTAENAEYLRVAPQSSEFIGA

Row | inhibition [1] | Compound | also measured
1 | 61.1% | C=CC(=O)Nc1cnn(-c2ccnc(Nc3cc(C)c(N4CCC(N(C)C)CC4)cc3OC)n2)c1 | 
2 | 90.2% | COc1cc(N2CCC(N3CCN(C)CC3)CC2)c(C)cc1Nc1nccc(-n2cc(NS(=O)(=O)C(C)C)cn2)n1 | 
3 | 48.5% | C=CC(=O)Nc1cnn(-c2ccnc(Nc3cc(C)c(N4CCOCC4)cc3OC)n2)c1 | 
4 | 79.9% | C=CC(=O)Nc1ccccc1-c1ccn(-c2nc(Nc3cc(C)c(N4CCC(N5CCN(C)CC5)CC4)cc3OC)ncc2Br)n1 | 
5 | 88.1% | COc1cc(N2CCC(N3CCN(C)CC3)CC2)c(C)cc1Nc1nccc(-n2cc(NS(C)(=O)=O)cn2)n1 | 
6 | 81.8% | COc1cc(N2CCC(N3CCN(C)CC3)CC2)c(C)cc1Nc1ncc(Br)c(-n2ccc(-c3ccccc3NS(=O)(=O)C3CC3)n2)n1 | IC50 [3]: 93.8 nM; IC50 [4]: > 5000 nM; IC50 [2]: 340 nM
7 | 54.3% | C=CC(=O)Nc1cnn(-c2ccnc(Nc3cc(C)c(N4CCN(S(C)(=O)=O)CC4)cc3OC)n2)c1 | 
8 | 80% | C=CC(=O)Nc1cnn(-c2ccnc(Nc3cc(C)c(N4CCC(N5CCN(C)CC5)CC4)cc3OC)n2)c1 | IC50 [3]: 78.2 nM; IC50 [4]: 485 nM; IC50 [2]: 238 nM
9 | 47.3% | C=CC(=O)Nc1cnn(-c2ccnc(Nc3cc(C)c(N4CCN(C)CC4)cc3OC)n2)c1 | 
10 | 81.9% | C/C=C/C(=O)Nc1cnn(-c2ccnc(Nc3cc(C)c(N4CCC(N5CCN(C)CC5)CC4)cc3OC)n2)c1 | 
11 | 89.8% | COc1cc(N2CCC(N3CCN(C)CC3)CC2)c(C)cc1Nc1nccc(-n2cc(NC(=O)C3CC3)cn2)n1 | IC50 [3]: 37.6 nM; IC50 [4]: 338 nM; IC50 [2]: 136 nM
12 | 46.1% | C=CC(=O)Nc1cnn(-c2ccnc(Nc3cc(C)c(N4CCN(C(C)C)CC4)cc3OC)n2)c1 | 
13 | 87.2% | COc1cc(N2CCC(N3CCN(C)CC3)CC2)c(C)cc1Nc1nccc(-n2cc(NC(=O)C=C(C)C)cn2)n1 | IC50 [3]: 53.4 nM; IC50 [4]: 382 nM; IC50 [2]: 213 nM
14 | 89.1% | CCCS(=O)(=O)Nc1cnn(-c2ccnc(Nc3cc(C)c(N4CCC(N5CCN(C)CC5)CC4)cc3OC)n2)c1 | 

Second part, the compound before the results:

Row | Compound | inhibition [1] | also measured
15 | CCS(=O)(=O)Nc1ccccc1-c1ccn(-c2nc(Nc3cc(C)c(N4CCC(N5CCN(C)CC5)CC4)cc3OC)ncc2Br)n1 | 71.4% | 
16 | COc1cc(N2CCC(N3CCN(C)CC3)CC2)ccc1Nc1ncc(Cl)c(Nc2ccccc2P(C)(C)=O)n1 [BRIGATINIB] |  | IC50 [2]: 542 nM
17 | CCCCS(=O)(=O)Nc1cnn(-c2ccnc(Nc3cc(C)c(N4CCC(N5CCN(C)CC5)CC4)cc3OC)n2)c1 | 90.2% | 
18 | C=C(C)C(=O)Nc1cnn(-c2ccnc(Nc3cc(C)c(N4CCC(N5CCN(C)CC5)CC4)cc3OC)n2)c1 | 83.8% | 
19 | C=CC(=O)Nc1cnn(-c2ccnc(Nc3cc(C)c(N4CCC(N5CCCC5)CC4)cc3OC)n2)c1 | 75.7% | 
20 | C=CC(=O)Nc1cnn(-c2ccnc(Nc3cc(C)c(N4CCN(C(C)=O)CC4)cc3OC)n2)c1 | 48.8% | 
21 | CCS(=O)(=O)Nc1cnn(-c2ccnc(Nc3cc(C)c(N4CCC(N5CCN(C)CC5)CC4)cc3OC)n2)c1 | 89% | 
22 | COc1cc(N2CCC(N3CCN(C)CC3)CC2)c(C)cc1Nc1nccc(-n2cc(NC(=O)C(C)C)cn2)n1 | 80.4% | 
23 | CCC(=O)Nc1cnn(-c2ccnc(Nc3cc(C)c(N4CCC(N5CCN(C)CC5)CC4)cc3OC)n2)c1 | 85.4% | 
24 | COc1cc(N2CCC(N3CCN(C)CC3)CC2)c(C)cc1Nc1nccc(-n2cc(NC(C)=O)cn2)n1 | 82.6% | 
25 | COc1cc(N2CCC(N3CCN(C)CC3)CC2)c(C)cc1Nc1nccc(-n2cc(NS(=O)(=O)C3CC3)cn2)n1 | 93.2% | IC50 [3]: 18.8 nM; IC50 [4]: 159 nM; Ratio IC50 [5]: 5; IC50 [2]: 97.1 nM
